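Assay format: 96-well plates, 48-hour exposure. GI50: concentration for 50% inhibition of growth.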 Active and inactive are the calls of the source. Rule as the data show it: active = GI50 up to about 1.1 µM and inactive = higher. A value given as a limit tells only on which side of the number the result lay.

One may read the GI50 as the concentration at which growth is held to half of that of the control.

Some test systems named below: SK-MEL-5; IGROV-1; HCT-116; CCRF-CEM; SW-620; MCF7; BT-549; T47D; PC-3; SR; Hs-578T; CAKI-1; HL-60; COLO 205; RXF 393; SK-MEL-2; HCT-15; UACC-257; KM12; UO-31.
Test in all cases: DTP human tumour cell line panel, 48 h

`c1ccc(CCCNc2nnnc3ccccc23)cc1`: the GI50 in the experiment on SK-MEL-5 is 32.4 µM (inactive); in the experiment with IGROV-1 it was > 100 µM (inactive); with HCT-116 it was > 100 µM (inactive); with CCRF-CEM, 73.8 µM (inactive); in the experiment with SW-620, > 100 µM (inactive); in the experiment with MCF7, 46 µM (inactive). For the same compound, the GI50 with BT-549 was > 100 µM (inactive); with T47D, 23.2 µM (inactive); with PC-3 it was > 100 µM (inactive); in the experiment with SR, 92.9 µM (inactive); in the experiment with Hs-578T, 34.8 µM (inactive); with CAKI-1, 46.7 µM (inactive). In addition, the GI50 in the experiment on HL-60 was > 100 µM (inactive); in the experiment on COLO 205, 62.5 µM (inactive); in the experiment on RXF 393 it was 43.4 µM (inactive); in the experiment on SK-MEL-2, > 100 µM (inactive); in the experiment on HCT-15, greater than 100 µM; with UACC-257, 67.6 µM (inactive). Also, the GI50 with KM12 was > 100 µM (inactive).
In the case of `COc1ccc2nc3ccc(OC)cc3c([S+]([O-])Cc3ccccc3)c2c1` (configuration not stated), the GI50 with SK-MEL-5 was 16.8 µM (inactive); with IGROV-1, 7.96 µM (inactive); in the experiment with HCT-116, 2.45 µM (inactive); in the experiment on CCRF-CEM, 2.65 µM (inactive); with SW-620 it was 3.89 µM (inactive); in the experiment on MCF7, 2.3 µM (inactive). Besides, the GI50 was 14.3 µM (inactive) in the experiment with BT-549; 2.11 µM (inactive) with T47D; 14.2 µM (inactive) in the experiment with PC-3; 3.04 µM (inactive) in the experiment on SR; 8.22 µM (inactive) with Hs-578T; 12.8 µM (inactive) in the experiment on CAKI-1. Also, the GI50 is 3.84 µM (inactive) in the experiment with HL-60; 6.87 µM (inactive) in the experiment on UO-31; 7.26 µM (inactive) in the experiment on COLO 205; 13.6 µM (inactive) with RXF 393; 17 µM (inactive) with SK-MEL-2; 6.61 µM in the experiment on HCT-15. In addition, the values for the GI50 in the experiment with UACC-257 and in the experiment with KM12 were 7.8 µM (inactive) and 17.8 µM (inactive), respectively.
Turning to `CCCCCCCCCc1cc(-c2ccc(C=O)s2)sc1-c1ccc(C=O)s1`, the GI50 in the experiment with SK-MEL-5 is 15.7 µM (inactive); in the experiment with IGROV-1 it was 21 µM (inactive); with HCT-116, 16.6 µM (inactive); in the experiment on CCRF-CEM it was 2.23 µM (inactive); in the experiment on SW-620, 30.2 µM (inactive); with MCF7, 14.3 µM (inactive). In addition, the GI50 in the experiment with BT-549 was 35.3 µM (inactive); in the experiment on T47D, 17.1 µM (inactive); in the experiment with PC-3, 37.8 µM (inactive); with SR, 4.08 µM (inactive); in the experiment with Hs-578T, 17.9 µM (inactive); in the experiment on HL-60, 16.8 µM (inactive). Moreover, the GI50 in the experiment on UO-31 is 17.7 µM (inactive); in the experiment with COLO 205, 20 µM (inactive); in the experiment on RXF 393, 8.81 µM (inactive); in the experiment with SK-MEL-2, 25.5 µM (inactive); in the experiment with HCT-15, 24.8 µM; in the experiment with UACC-257 it was 13.6 µM (inactive). In the experiment on KM12, the GI50 is 36.6 µM (inactive).
As to `C1CCN2CC3CCCN4CCCC(C2C1)C34` (configuration not stated), the GI50 in the experiment on SK-MEL-5, in the experiment on IGROV-1, in the experiment with HCT-116, with CCRF-CEM, with SW-620 and in the experiment on MCF7 was > 100 µM (inactive) each time. Besides, the GI50 in the experiment on BT-549, with T47D, in the experiment with PC-3, in the experiment with SR, in the experiment on Hs-578T and in the experiment with CAKI-1 was > 100 µM (inactive) in each case. The GI50 in the experiment on HL-60 is > 100 µM (inactive); with COLO 205, > 100 µM (inactive); in the experiment on RXF 393, > 100 µM (inactive); in the experiment on SK-MEL-2, > 100 µM (inactive); in the experiment on HCT-15, greater than 100 µM; in the experiment on UACC-257, > 100 µM (inactive). Besides, in the experiment on KM12, the GI50 is > 100 µM (inactive).
Turning to `O=C(Cc1ccc(Cl)c(Cl)c1)NCC1(N2CCCCC2)CCCCC1`, the GI50 with IGROV-1 was > 100 µM (inactive); in the experiment with HCT-116 it was 40.6 µM (inactive); in the experiment with CCRF-CEM it was 51.3 µM (inactive); with SW-620, 54.6 µM (inactive); in the experiment on MCF7, 43.6 µM (inactive); with BT-549 it was 55.5 µM (inactive). Moreover, the GI50 is 21.1 µM (inactive) in the experiment on T47D; 40.1 µM (inactive) in the experiment with PC-3; 35.5 µM (inactive) in the experiment on SR; 52.2 µM (inactive) with Hs-578T; > 100 µM (inactive) in the experiment with CAKI-1; 41.4 µM (inactive) in the experiment with HL-60. The GI50 is 27.1 µM (inactive) in the experiment on UO-31; 21.6 µM (inactive) in the experiment with RXF 393; 46.1 µM (inactive) with SK-MEL-2; 38.7 µM in the experiment on HCT-15; 17.8 µM (inactive) with UACC-257; 50.7 µM (inactive) in the experiment with KM12.
For the compound `O=C(CSCC(=O)N/N=C\c1cccc(Br)c1)N/N=C\c1cccc(Br)c1`, the GI50 with SK-MEL-5 is 19.1 µM (inactive); with IGROV-1, 17.1 µM (inactive); with HCT-116, 14.8 µM (inactive); in the experiment with SW-620 it was 27.8 µM (inactive); with MCF7, 33.1 µM (inactive); with BT-549, 21.2 µM (inactive). The GI50 is 18.1 µM (inactive) in the experiment on T47D; 14.5 µM (inactive) in the experiment with PC-3; 27.2 µM (inactive) in the experiment with SR; 18.2 µM (inactive) in the experiment on Hs-578T; 17.9 µM (inactive) in the experiment on CAKI-1; 30.3 µM (inactive) with HL-60. For the same compound, the GI50 is 15.5 µM (inactive) in the experiment on UO-31; 34 µM (inactive) in the experiment on COLO 205; 20.3 µM (inactive) in the experiment with RXF 393; 22.9 µM (inactive) with SK-MEL-2; 21.2 µM with HCT-15; 14.1 µM (inactive) in the experiment on UACC-257. Further, the GI50 with KM12 was 15 µM (inactive).
On to `Cc1nc(C(N)=S)sc1C(=O)CC(=O)C(=O)Nc1nc2ccccc2[nH]1`, for which the GI50 in the experiment with SK-MEL-5, in the experiment with IGROV-1, in the experiment on HCT-116, in the experiment with SW-620, with MCF7 and with BT-549 was > 100 µM (inactive) in each case. Besides, the GI50 in the experiment on T47D was > 100 µM (inactive); with PC-3 it was > 100 µM (inactive); in the experiment on SR, > 100 µM (inactive); with Hs-578T, > 100 µM (inactive); with CAKI-1 it was > 100 µM (inactive); in the experiment with HL-60 it was 46.8 µM (inactive). The GI50 in the experiment with UO-31 is > 100 µM (inactive); in the experiment with RXF 393, > 100 µM (inactive); in the experiment with SK-MEL-2, > 100 µM (inactive); with HCT-15, greater than 100 µM; in the experiment on UACC-257, > 100 µM (inactive); with KM12, > 100 µM (inactive).
In the case of `O=[N+]([O-])c1ccc2c3c1[C@@H]1O[C@@H]1c1cccc(c1-3)[C@@H]1O[C@H]21`, the GI50 with SK-MEL-5 is 10.7 µM (inactive); in the experiment with IGROV-1, 1.24 µM (inactive); with HCT-116, 2.42 µM (inactive); in the experiment on CCRF-CEM, 2.45 µM (inactive); in the experiment on SW-620, 2.72 µM (inactive); in the experiment on MCF7 it was 3.55 µM (inactive). For the same compound, the GI50 in the experiment on BT-549 was 6.11 µM (inactive); in the experiment with T47D, 3.35 µM (inactive); in the experiment on PC-3, 7.91 µM (inactive); in the experiment with SR, 4.21 µM (inactive); with Hs-578T, 3.1 µM (inactive); in the experiment on CAKI-1, 1.61 µM (inactive). Besides, the GI50 with HL-60 was 3.1 µM (inactive); in the experiment with UO-31, 2.07 µM (inactive); in the experiment on COLO 205 it was 6.47 µM (inactive); in the experiment on RXF 393 it was 4.17 µM (inactive); with SK-MEL-2, 6.14 µM (inactive); in the experiment with HCT-15, 2.57 µM. For the same compound, the GI50 in the experiment on UACC-257 was 6.87 µM (inactive); with KM12 it was 2.72 µM (inactive).
